According to patent US20260069693A1, “UROLITHINS AND T-CELL MEDIATED IMMUNE RESPONSE” (priority 2022, published 2026):

How the values were obtained:
[1] = system: CEA-CAR T cells; test: UA applied to previously frozen CEA-CAR T cells; format: cell-based, human; conditions: previously frozen CEA-specific CAR-T cells, UA for three days
[2] = system: CEA-expressing human CRC organoids; test: CEA-CAR T cell killing of CRC organoids; format: cell-based; conditions: 72 h co-culture, UA vs DMSO
Procedure: In human CRC organoids, CEA-expression was confirmed by flow cytometry […]CEACAM5-APC (487609; FAB41281A; R&D Systems) Before co-culture, CEA-CAR T cells were cultivated in presence or absence of UA for three days. The cytotoxicity assay was performed as described (Schnalzger et al., 2019), using 96 well plates coated with 15 μl Cultrex Basement Membrane Extract, Type 2 per well and organoids were seeded at a ratio of 1:8. Co-culture was performed for three days with 0.5×10^4 CAR T cells per well resuspended in organoid medium (as described above) without IL7/IL15. 100 μl luciferase assay reagent composed of 10% One-Glo EX Reagent (Promega) in lysis buffer (50 mM NaCl, 50 mM Tris-HCl pH 7.4, 1% Triton X-100) was added to each well and incubated at room temperature for 1 h protected from light. 100 μl of each sample was transferred to an opaque 96-well microtiter plate and measured using a SpectraMax iD3 microplate reader (Molecular Devices).

[3] = system: Pink1^−/− T cells; test: aCD3/aCD28 stimulation of Pink1-/- T cells in presence of UA; format: cell-based, mice
From the text: UA activates mitophagy in myocytes and hippocampal neurons via a Pink1/Parkin mediated stress-response (D'Amico et al., 2021). […] Moreover, UA stabilized Parkin protein expression (FIG. 4G). To functionally confirm the dependence of UA induced TSCM formation on Pink1/Parkin mediated mitophagy, the inventors activated Pink1^−/− T cells in the presence or absence of UA. Loss of Pink1 prevented the UA-induced lysosome formation as well as the decrease in mitochondrial content (FIG. 4H, I).
Splenic murine T cells were isolated from mice aged 6-20 weeks by negative selection with EasySep mouse T cell isolation kit (Stem cell) according to the manufacturer's instructions. To monitor T cell proliferation, purified T cells were loaded with CellTrace Violet (C34557 ThermoFisher Scientific). T cell activation was initiated using αCD3/CD28 activation beads (11456D; ThermoFisher Scientific) at a ratio of 25 μl dynabeads per 0.5×10^6 T-cells. Cells were activated with 25-50 μM Urolithin A (Tocris) or DMSO in T cell activation Medium (RPMI (ThermoFisher Scientific) 10% FBS (South America origin), 10 mM Hepes (Sigma), 1× Non-Essential Amino Acid, 1 mM Sodium Pyruvate, 50 μM B-Mercaptoethanol, 100 U/ml penicillin, 100 μg/ml streptomycin and 2 mM Glutamax (ThermoFisher Scientific) for the indicated durations. In selected experiments, cells were stimulated in the presence of inhibitors, namely TCF1i (ICG-001; SelleckChem; 10 μM) and PGC-1αi (SR-18292, Sigma-Aldrich; 10 μm,). For subsequent analysis, activating beads were magnetically removed prior antibody staining. For human T cells, peripheral blood mononuclear cells were purified with a Ficoll-Paque (GE healthcare) gradient. T cells were enriched with EasySep Human T Cell Isolation Kit (StemCell) and activated with dynabead Human T-Activator CD3/CD28 for T Cell Expansion and Activation Kit (11131D; ThermoFisher Scientific), similar to murine T cell stimulation.
For flow cytometric analysis of mitochondria and lysosomes 500 μl of Mitotracker Red (200 nM; ThermoFisher) or Lysotracker Red DND-99 (75 nM; ThermoFisher) were applied followed by surface staining. To study changes in mitochondrial membrane potential, Mitoprobe TMRM kit (ThermoFisher) was used according to the manufacturer's instructions. Cell proliferation was assessed by CellTrace Violet (Invitrogen, C34557) at a concentration of 5 μM according to manufacturer's instructions. For human samples, cells were stained as described above with Fixable Viability Dye-eF780, αCD95-BV421 (DX2; 562616), αCD62L-PE (DREG-56; 555544), αCCR7-AF700 (150503; 561143), αCD45RO-APC (UCHL; 559865), αCD45RA-FITC (HI100; 555488), αCD8-PE-CF594 (RPA-T8; 562282) and αCD4-BV786 (OKT4; 566806) from BD.

[4] = system: T cells; test: qPCR and RNA sequencing of stimulated T cells; format: cell-based, mice
Procedure: To explore the downstream events linking mitophagy to TSCM formation, the inventors performed RNA sequencing to globally assess differential gene expression in T cells exposed for 48 hours to either DMSO or UA in vitro. […] Indeed, when the inventors applied ICG001 to pharmacologically block TCF-1, UA-induced TSCM formation in vitro was abrogated (FIG. 5D-E).
In vitro activated T cells following the indicated treatments were collected followed by RNA isolation using the RNeasy kit (Qiagen). RNA quality and concentration were determined by Nanodrop spectrophotometer. Complementary DNA was generated using SuperScript II reverse transcriptase (ThermoFisher). A total reaction volume of 13 μl RNA was incubated with oligoDT and DNTP Mix (1 μl each) for 5 min at 65° C. The samples were allowed to cool down for 5 min on ice, and to each 4 μl of 5× First strand buffer, 1 μl DTT, 1 μl RNAseOUT™ and 1 μl Superscript II reverse transcriptase were added. Samples were incubated for 1 h at 42° C. Synthesized cDNA was 1:5 diluted in nuclease free water before being processed into gene expression analysis with the 96 wells StepOne real time PCR Machine (Applied biosystems) using 2× FastStart Universal SYBR Green Master Mix (Roche). CT values were normalized to the gene indicated in the respective figures. The following primers were used: […]
For RNA isolation of in vitro stimulated T cells, RNeasy mini kit (Qiagen) was used. 200 ng of total RNA was used to prepare the library for RNA sequencing. Coexpression patterns of genes associated with effector and memory cell fate, immune checkpoints, effector molecules, and adhesion/homing were chosen based on the literature as depicted in the main text. Data underwent z-score normalization for display as described previously (Xiong et al., 2020). Upstream regulator analysis was performed using Ingenuity pathway analysis software, using a cut-off log 2fold change of 1 and a p value of […].

In the case of `O=c1oc2cc(O)ccc2c2ccc(O)cc12` [UA, Urolithin A], the “CAR TSCM formation” value [1] is reported as “strongly enhanced”, the “killing efficacy of CEA-expressing human CRC organoids” value [2] is reported as “comparable killing efficacy” and the UA-induced lysosome formation ([3]; Loss of Pink1, 6 h, UA 50 μM) is reported as “prevented”. The “UA-induced decrease in mitochondrial content” value ([3]; Loss of Pink1, 48 h, UA 50 μM) was “prevented”, the “cytoplasmic expression of Pgam5” value ([3]; Pink1-/- CD8+ T cells upon UA exposure) was “lack of cytoplasmic expression” and the PGC-1a ([3]; Pink1-/- CD8+ T cells, 48 h, UA 50 μM) was “failed to enhance”. For the same compound, the TSCM phenotype ([3]; Pink1-/- CD8+ T cells, 48 h, UA 25 and 50 μM) was “failed to exhibit a TSCM phenotype”, the “TCF-1 in CD44-CD62L+CD8+ T cells” value ([3]; Pink1-/-, 48 h, UA 50 μM) was “less” and the “transcription of several Wnt target genes” value [4] was “increased transcription”. The “expression of Cd27, Ccr7 and adhesion genes” value ([4]; RNA sequencing, 48 h) was “enhancing expression”, the “expression of effector fate associated genes Prdm1 and Id2” value ([4]; RNA sequencing, 48 h) was “reduced expression” and the “expression of genes that code for immune checkpoints and effector molecules” value ([4]; RNA sequencing, 48 h) was “reduced the expression”. For the same compound, the “genes involved in memory formation such as Tcf7, Bach2 and Bcl6” value ([4]; RNA sequencing, 48 h) was “special enrichment”, the Atg5 gene expression ([4]; qPCR, 24 h, UA 50 μM) was “significant upregulation” and the Atg7 gene expression ([4]; qPCR, 24 h, UA 50 μM) was “significant upregulation”. The Lamp2 gene expression ([4]; qPCR, 24 h, UA 50 μM) was “significant upregulation”, the Pink1 gene expression ([4]; qPCR, 24 h, UA 50 μM) was “significant upregulation” and the p62 gene expression ([4]; qPCR, 24 h, UA 50 μM) was “significant upregulation”.
